Counter-ions that a name gives are not always drawn. Like-named read-outs stand apart in the source and are kept apart here.
Columns and labels:
[1] = Acute toxicity in CFLP mice (Probite analysis according to Litchfield-Wilcoxon); settings: mouse, in vivo
From the text: Acute toxicity of pyrazole derivatives of
general formula (I) in CFLP mice
Method: Probite analysis according to Litchfield-
Wilcoxon [J. Pharm. Exp. Ther. 96, 99 (1949)]

PGF2alpha receptor [2] = biological target: T1, PGF2alpha receptor (Rattus norvegicus, UniProt P43118); test: PGF2alpha antagonist effect in vitro in isolated rat uterus; settings: compound 2 × 10^-6 M, PGF2alpha 1.4 × 10^-7 M, read-out: Percentual inhibition at concentrations of 2 × 10^-6 M against 1.4 × 10^-7 M PGF2alpha
T1 construct: in the isolated rat uterus; from tissue; host or cells: isolated rat uterus
From the text: (§1) In vitro, in the isolated rat uterus (Table 1), and in vivo in rabbits under urethane anesthesis (Table 2) they antagonize the uterine contraction inducing activity of PGF2alpha. The competitive antagonist effect of the compounds is selective and protracted, while it fails to influence the uterine contraction inducing effect of other endogeneous compounds, i.e. oxytocin. This would enable their use as spasmolytic agents of new mechanism of action in the field of obstetrics and gynecology for the treatment of dysmenorrhea and anovulation, and the prevention of imminent and habitual abortus and miscarriage.
PGF2alpha antagonist effect of the compounds of general
formula (I) in vitro in isolated rat uterus
Method: 1. J. H. Gaddum and K. A. Hammed:
2. O. Arunlakshana and H. O Schild:
Compound Percentual inhibition at concentrations

PGF2alpha receptor [3] = test: In vivo PGF2alpha antagonist effect in urethane anesthesized rabbits; settings: PGF2alpha 6.25 μg/kg iv; for Duration of the effect: rabbits; for Inhibition: urethane anesthesized rabbits
From the text: as §1
In vivo PGF2alpha antagonist effect of pyrazole deriva-
tives of general formula (I) in urethane (1.2 g/kg iv)
1. D. F. Hawkins: Agents Acting on the Uterus.
In: Evaluation of Drug Activities: Pharma-
cometrics. Edited by R. Lawrence and A. L.
Bacharach. Academic Press, London, p. 680 (1964)
2. A. R. Cushny: J. Physiol. 35, 1 (1906)
PGF2alpha standard dose: 6.25 μg/kg iv

uterine musculature = settings: known compounds with ergoline skeleton; cited from earlier work

T1 sequence (P43118 whole entry): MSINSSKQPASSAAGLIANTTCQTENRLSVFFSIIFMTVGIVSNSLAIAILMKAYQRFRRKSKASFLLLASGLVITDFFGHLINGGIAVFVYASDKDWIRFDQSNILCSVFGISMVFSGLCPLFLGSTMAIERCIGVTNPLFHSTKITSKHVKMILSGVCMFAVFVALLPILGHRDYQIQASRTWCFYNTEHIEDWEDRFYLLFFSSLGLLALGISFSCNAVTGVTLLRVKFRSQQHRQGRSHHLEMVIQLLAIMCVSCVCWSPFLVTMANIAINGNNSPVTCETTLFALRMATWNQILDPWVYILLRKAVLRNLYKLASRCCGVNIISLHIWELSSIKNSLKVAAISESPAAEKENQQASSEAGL

## Cc1nn(C[C@@H]2C=C3c4cccc5[nH]cc(c45)C[C@H]3N(C)C2)c2c1CCC2 [Example 1, 8-beta-[3(5)-Methyl-cyclopentano/4,5(3,4)/pyrazol-1-yl-methylene]-6-methyl-ergol-9-ene]
[1]; ip, read-out: LD50 ip
  LD50: 3100 mg/kg
[1]; po, read-out: LD50 po
  LD50: 2450 mg/kg
PGF2alpha receptor [2]
  inhibition at 2 µM: 70%
PGF2alpha receptor [3]; 0.3 mg/kg intraduodenal
  Duration of the effect: > 180 min
  Inhibition: 38%
PGF2alpha receptor [3]; 1.0 mg/kg intraduodenal
  Duration of the effect: > 180 min
  Inhibition: 49%

## Cc1nn(C[C@@H]2C=C3c4cccc5c4c(cn5C)C[C@H]3N(C)C2)c2c1CCC2 [Example 2, 8-beta-[3(5)-Methyl-cyclopentane/4,5(3,4)/pyrazol-1-yl-methylene]-1,6-dimethyl-ergol-9-ene hydrogen maleinate]
[1]; ip, read-out: LD50 ip
  LD50: > 100 mg/kg
[1]; po, read-out: LD50 po
  LD50: > 100 mg/kg
PGF2alpha receptor [2]
  inhibition at 2 µM: 58%

## Cc1nn(C[C@@H]2C[C@@H]3c4cccc5[nH]cc(c45)C[C@H]3N(C)C2)c2c1CCC2 [Example 4, 8-beta-[3(5)-Methyl-cyclopentano/4,5(3,4)/pyrazol-1-yl-methylene]-6-methyl-ergoline]
[1]; ip, read-out: LD50 ip
  LD50: > 100 mg/kg
[1]; po, read-out: LD50 po
  LD50: > 100 mg/kg

## CN1C[C@H](Cn2nc(-c3cccnc3)c3c2CCC3)C=C2c3cccc4[nH]cc(c34)C[C@H]21 [Example 5, 8-beta-[3(5)-(3-Pyridyl)-cyclopentano/4,5(3,4)/pyrazol-1-yl-methylene]-6-methyl-ergol-9-ene]
[1]; ip, read-out: LD50 ip
  LD50: > 100 mg/kg
[1]; po, read-out: LD50 po
  LD50: > 100 mg/kg
PGF2alpha receptor [2]
  inhibition at 2 µM: 46%

## Cc1nn(C[C@@H]2C=C3c4cccc5[nH]cc(c45)C[C@H]3N(C)C2)c2c1C(=O)CC2 [Example 6, 8-beta-[3(6)-Methyl-4(5)-oxo-cyclopentano/4,5(3,4)/pyrazol-1-yl-methylene]-6-methyl-ergol-9-ene]
[1]; ip, read-out: LD50 ip
  LD50: > 200 mg/kg
[1]; po, read-out: LD50 po
  LD50: 1000 mg/kg

## Cc1nn(C[C@@H]2C=C3c4cccc5[nH]cc(c45)C[C@H]3N(C)C2)c2c1C(O)CC2 (stereo partly drawn) [Example 7, 8-beta-[3(6)-Methyl-4(5)-hydroxy-cyclopentano/4,5(3,4)/pyrazol-1-yl-methylene]-6-methyl-ergol-9-ene]
[1]; ip, read-out: LD50 ip
  LD50: > 100 mg/kg
[1]; po, read-out: LD50 po
  LD50: > 100 mg/kg

## Cc1nn(C[C@@H]2C=C3c4cccc5[nH]cc(c45)C[C@H]3N(C)C2)c2c1C(=NO)CC2 [Example 8, 8-beta-[3(6)-Methyl-4(5)-hydroxy-imino-cyclopentano/4,5(3,4)/pyrazol-1-yl-methylene]-6-methyl-ergol-9-ene]
[1]; ip, read-out: LD50 ip
  LD50: > 100 mg/kg
[1]; po, read-out: LD50 po
  LD50: > 100 mg/kg

## Cc1nn(C[C@@H]2C=C3c4cccc5[nH]cc(c45)C[C@H]3N(C)C2)c2c1CCCC2 [Example 9, 8-beta-[3(5)-Methyl-cyclohexano/4,5(3,4)/pyrazol-1-yl-methylene]-6-methyl-ergol-9-ene]
[1]; ip, read-out: LD50 ip
  LD50: > 100 mg/kg
[1]; po, read-out: LD50 po
  LD50: > 100 mg/kg
PGF2alpha receptor [2]
  inhibition at 2 µM: 40%
PGF2alpha receptor [3]; 3.0 mg/kg intraduodenal
  Duration of the effect: > 180 min
  Inhibition: 58%
PGF2alpha receptor [3]; 10.0 mg/kg intraduodenal
  Duration of the effect: > 180 min
  Inhibition: 68%

## Cc1nn(C[C@@H]2C=C3c4cccc5[nH]cc(c45)C[C@H]3N(C)C2)c2c1C(=O)CC(C)(C)C2 [Example 10]
[1]; ip, read-out: LD50 ip
  LD50: > 100 mg/kg
[1]; po, read-out: LD50 po
  LD50: > 100 mg/kg
PGF2alpha receptor [2]
  inhibition at 2 µM: 66%
PGF2alpha receptor [3]; 20.0 mg/kg intraduodenal
  Duration of the effect: 90 min
  Inhibition: 42%

## Cc1nn(C[C@@H]2C=C3c4cccc5[nH]cc(c45)C[C@H]3N(C)C2)c2c1C(=NO)CC(C)(C)C2 [Example 11, 8-beta-[3(7),6(4)-Trimethyl-4(6)-hydroxy-imino-cyclohexano/4,5(3,4)/pyrazol-1-yl-methylene]-6-methyl-ergol-9-ene]
[1]; ip, read-out: LD50 ip
  LD50: > 100 mg/kg
[1]; po, read-out: LD50 po
  LD50: > 100 mg/kg
PGF2alpha receptor [2]
  inhibition at 2 µM: 80%
PGF2alpha receptor [3]; 20.0 mg/kg intraduodenal
  Duration of the effect: > 120 min
  Inhibition: 72%

## C=CCc1c(C)nn(C[C@@H]2C=C3c4cccc5[nH]cc(c45)C[C@H]3N(C)C2)c1C [Example 14, 8-beta-(3,5-Dimethyl-4-allyl-pyrazol-1-yl-methylene)-6-methyl-ergol-9-ene]
[1]; ip, read-out: LD50 ip
  LD50: > 100 mg/kg
[1]; po, read-out: LD50 po
  LD50: > 100 mg/kg
PGF2alpha receptor [2]
  inhibition at 2 µM: 77%

## CCOC(=O)c1nn(C[C@@H]2C=C3c4cccc5[nH]cc(c45)C[C@H]3N(C)C2)c(O)c1C [Example 15, 8-beta-(3-Carbethoxy-4-methyl-5-hydroxy-pyrazol-1-yl-methylene)-6-methyl-ergol-9-ene]
[1]; ip, read-out: LD50 ip
  LD50: > 100 mg/kg
[1]; po, read-out: LD50 po
  LD50: > 100 mg/kg
PGF2alpha receptor [2]
  inhibition at 2 µM: 40%

## Cc1cc(-c2ccccn2)nn1C[C@@H]1C=C2c3cccc4[nH]cc(c34)C[C@H]2N(C)C1 [Example 16, 8-beta-[3(5)-/2-Pyridyl/-5(3)-methyl-pyrazol-1-yl-methylene]-6-methyl-ergol-9-ene]
[1]; ip, read-out: LD50 ip
  LD50: > 100 mg/kg
[1]; po, read-out: LD50 po
  LD50: > 100 mg/kg
PGF2alpha receptor [2]
  inhibition at 2 µM: 18%

## Cc1cc(-c2ccccn2)nn1C[C@@H]1C[C@@H]2c3cccc4[nH]cc(c34)C[C@H]2N(C)C1 [Example 17, 8-beta-[3(5)-/2-Pyridyl/-5(3)-methyl-pyrazol-1-yl-methylene]-6-methyl-ergoline]
[1]; ip, read-out: LD50 ip
  LD50: > 100 mg/kg
[1]; po, read-out: LD50 po
  LD50: > 100 mg/kg
PGF2alpha receptor [2]
  inhibition at 2 µM: 44%
PGF2alpha receptor [3]; 10.0 mg/kg intraduodenal
  Duration of the effect: 120 min
  Inhibition: 55%
PGF2alpha receptor [3]; 20.0 mg/kg intraduodenal
  Duration of the effect: > 150 min
  Inhibition: 77%

## CC(=O)c1c(C)nn(C[C@@H]2C=C3c4cccc5[nH]cc(c45)C[C@H]3N(C)C2)c1C [Example 18, 8-beta-[3,5-Dimethyl-4-(1-oxo-ethyl)-pyrazol-1-yl-methylene]-6-methyl-ergol-9-ene]
[1]; ip, read-out: LD50 ip
  LD50: > 100 mg/kg
[1]; po, read-out: LD50 po
  LD50: > 100 mg/kg

## Cc1nn(C[C@@H]2C=C3c4cccc5[nH]cc(c45)C[C@H]3N(C)C2)c2c1CCC2 [Hydrogen-fumarate of 1, 8-beta-[3(5)-methyl-cyclopentano/4,5(3,4)/pyrazol-1-yl-methylene]-6-methyl-ergol-9-ene hydrogen fumarate]
PGF2alpha receptor [3]; 3.0 mg/kg intraduodenal
  Duration of the effect: > 180 min
  Inhibition: 63%

## CC(C)C[C@H]1C(=O)N2CCC[C@H]2[C@]2(O)O[C@](NC(=O)[C@@H]3C=C4c5cccc6[nH]c(Br)c(c56)C[C@H]4N(C)C3)(C(C)C)C(=O)N12 [bromocryptine]
Uterine musculature
  effect on the uterine musculature: uterine relaxants

## CN1C[C@H](C(=O)N[C@]2(C)O[C@@]3(O)[C@@H]4CCCN4C(=O)[C@H](Cc4ccccc4)N3C2=O)C[C@@H]2c3cccc4[nH]cc(c34)C[C@H]21 [dihydroergotamine]
Uterine musculature
  effect on the uterine musculature: uterine relaxants

## C[C@@H](CO)NC(=O)[C@@H]1C=C2c3cccc4[nH]cc(c34)C[C@H]2N(C)C1 [ergometrin]
Uterine musculature
  effect on the uterine musculature: inducing uterine contraction

## CN1C[C@H](C(=O)N[C@]2(C)O[C@@]3(O)[C@@H]4CCCN4C(=O)[C@H](Cc4ccccc4)N3C2=O)C=C2c3cccc4[nH]cc(c34)C[C@H]21 [ergotamine]
Uterine musculature
  effect on the uterine musculature: inducing uterine contraction

## CC[C@@H](CO)NC(=O)[C@@H]1C=C2c3cccc4[nH]cc(c34)C[C@H]2N(C)C1 [methylergometrin]
Uterine musculature
  effect on the uterine musculature: inducing uterine contraction

## hydergine
Uterine musculature
  effect on the uterine musculature: uterine relaxants

From patent publication US4632928A, “Pyrazole derivatives with an ergoline skeleton, their acid addition salts, and a process for the preparation thereof” (Richter Gedeon Vegyeszeti Gyar R.T., priority 1983, dated 1986)
